Data on 7 molecules can be found in patent US10888549B2, “Pharmaceutical agents targeting cancer stem cells” (THE JOHNS HOPKINS UNIVERSITY, priority 2016, dated 2021).

The test system of one data set is SOX2. The experiment in a line: SOX2 expression by western blotting / flow cytometry. The class given is cell-based, human. The method, then:
(§1) Whole cell lysates were extracted using RIPA buffer (Thermo Scientific) supplemented with 10 μL/mL Halt™ Protease Inhibitor Cocktail Kit (Life Technologies) and 30 μL/mL Halt™ Phosphatase Inhibitor Cocktail Kit (Life Technologies). The protein concentrations were determined using a Pierce™ BCA Protein Assay Kit (Life Technologies), and the protein were separated on NuPAGE® 4-12% Bis-Tris Gel (Life Technologies) according to the manufacturer's protocol. COX2 (D5H5), NANOG (D73G4), OCT4 (D7O5Z), CD133 (A3G6K), Snail (C15D3), ZEB1 (D80D3), Vimentin (D21H3), CDH2 (D4R1H), CDH1 (24E10), p-EGFR (D7A5), EGFR (D38B1), p-AKT (D9E), AKT (cat #, 9272), p-ERK (D13.14.4E), ERK (137F5), p-YAP1 (D9W2I), p-Src (cat #, 2101), Src (36D10), DNMT1 (D63A6), DNMT3A (D23G1), and DNMT3B (D7O7O) antibodies were obtained from Cell Signaling Technology (Danvers, Mass., USA), except for SOX2 (EPR3131; Abcam, Cambridge, USA), YAP1 (ab52771; Abcam), CD24 (cat #, AF5247-SP; R&D Systems, Minneapolis USA) and β-actin (A2228; Sigma-Aldrich). Secondary horseradish peroxidase (HRP)-conjugated antibodies were obtained from Cell Signaling Technology, and chemiluminescent detection of HRP-labeled antibodies was performed using Amersham ECL Prime Western Blotting Detection Reagent (GE Healthcare, Piscataway, USA). As loading control, β-actin was used.
For extracellular staining, cells (1×10^6/100 μL stain buffer) were incubated with PE-Vio770-conjugated anti-human CD133 (293C3; Miltenyi Biotec, Auburn, USA) or PE-conjugated anti-human CD24 antibody (cat #, 560991; BD Biosciences) for 30 min at 4° C. in dark. PE-Vio770-conjugated Isotype (cat #, 130-098-563; Miltenyi Biotec) and PE-conjugated IgG2a, κ Isotype (cat #, 555574; BD Biosciences) were used as control for CD133 and CD24 staining, respectively. Staining for intracellular SOX2 was carried out using the BD Cytofix/Cytoperm Fixation/Permeabilization Kit (BD Biosciences) according to manufacturer's protocol. The cells were incubated with Alexa Fluor 647-conjugated anti-SOX2 antibody (cat #, 560302; BD Biosciences) for 40 min at 4° C. in dark. Alexa Fluor 647-conjugated anti-IgG2a, κ Isotype (cat #, 558053; BD Biosciences) was used as control. Data were acquired on a BD FACSCalibur flow cytometer (BD Biosciences) using BD CellQuest Pro software (BD Biosciences) and analyzed with FlowJo software v10.1 (Tree Star, Ashland, USA).

Another data set relates to urothelial CSCs. The experiment in a line: Sphere formation assay (CSC properties). The class given is cell-based, human. As to conditions: for sphere formation / sphere-forming ability: agent alone, bladder cancer cells. As for the experimental part: Sphere formation was induced by culturing cells (2×10^4/well) in DMEM/Ham's F12 50/50 Mix (Mediatech) supplemented with B-27 (Life Technologies), 20 ng/mL FGF-basic (Peprotech), 20 ng/mL EGF (Peprotech). Cell culture was performed in ultra-low attachment 6 well plates (Corning, Lowell, USA) for 10 days. The medium was replaced every other day. Sphere formation was evaluated using the inverted phase-contrast microscope, and single sphere with a diameter larger than 100 μm was counted using NIS-Elements Microscope Imaging Software. To redifferentiate spheres, spheres were plated in standard growth medium with 10% FBS in dishes supporting cell attachment, and incubated for 7 days. For self-renewal assay, primary spheres were collected by gentle centrifugation (5 min at 400×g), dissociated with Stempro Accutase Cell Dissociation Reagent (Life Technologies), and mechanically disrupted with a pipette. The cell suspension was sieved through 40 μm cell strainer cap filter to achieve a single-cell suspension, and then equal numbers of alive cells were plated in ultralow attachment plates to generate the second spheres. Again, spheres were counted on day 14 and digested to generate the third Spheres. All the experiments were performed in triplicate and repeated at least three times.

The test system of a further data set is let-7. In words: let-7 expression by Q-RT-PCR. The class given is cell-based, human. The settings on record: parental or spheroid bladder cancer cells. The method, then: Total RNA from cell lines was isolated using the RNeasy Plus Mini kit (Qiagen, Valencia, USA) according to the manufacturer's protocol. Total RNA extraction from bladder tissue was performed with the QIAzol Lysis Reagent (Qiagen) followed by phenol extraction and ethanol precipitation. Total RNA was eluted in DEPC treated water and stored at -80° C. Total RNA extraction from urine was performed using the […] Isolation Kit (Ambion, Austin, USA). These total RNA were converted to cDNA using the SuperScript III First-Strand Synthesis System (Life technologies, Carlsbad, USA), which was then used as a template for Q-RT-PCR. Q-RT-PCR was performed using the Fast SYBR Green Master Mix (Thermo Fisher Scientific, Waltham, USA) on a 7900HT Fast Real-Time PCR System (Life technologies) in triplicate. Micro RNA (miRNA) extraction was performed using the […] Isolation Kit, and was reverse transcribed using TaqMan reverse transcription kit (Applied Biosystems, Foster City, USA) and miRNA-specific RT primers provided with TaqMan microRNA assays (Applied Biosystems). Q-RT-PCR for miRNAs was performed using the TaqMan Universal PCR Master Mix according to the manufacturer's protocol. SDS software (Applied Biosystems) was used to determine cycle threshold (Ct) values. Expression level was quantified relative to β-actin for mRNA and RNU6B for miRNA using the 2-ΔΔCt method (12).

For another data set, the system named is MIRLET7BHG promoter. The experiment in a line: Bisulfite sequencing of let-7 host gene promoter. The class given is cell-based, human. As to conditions: bladder cancer cells. As for the experimental part:
Cell pellets were digested with 1% sodium dodecyl sulfate and 50 μg/mL proteinase K (Roche, Nutley, USA) at 48° C. overnight. Isolation of genomic DNA from cell lines was performed with the phenol-chloroform extraction protocol followed by ethanol precipitation. Bisulfite treatment was conducted using an EpiTect Bisulfite Kit (QIAGEN, Valencia, USA), and was subsequently amplified via PCR using primers as shown in the following table. PCR products were purified using the QIAquick Gel Extraction kit (Qiagen), and sequenced by Genewiz DNA sequencing service (Genewiz, South Plainfield, USA). The data were analyzed using the Sequence Scanner v1.0 software (Life technologies). A methylation frequency of ≥50% of total CpG sites within the amplified region was considered “methylation-positive”. For demethylation, cells (1×10^6/T-75 flask) were treated with […] of the demethylating agent 5-Aza-dC (Sigma) dissolved in 50% acetic acid or were mock-treated with phosphate buffered saline (PBS) including the same amount of acetic acid every 24 hours for 5 days. When combined with the histone deacetylase inhibitor TSA (Sigma), 300 nmol/L TSA was added to the medium for the final 24 hours.

The next data set relates to panel of miRNAs. The experiment in a line: Expression of a panel of miRNAs in BFTC 905 cells. The class given is cell-based, human. As for the experimental part:
Total RNA from cell lines was isolated using the RNeasy Plus Mini kit (Qiagen, Valencia, USA) according to the manufacturer's protocol. Total RNA extraction from bladder tissue was performed with the QIAzol Lysis Reagent (Qiagen) followed by phenol extraction and ethanol precipitation. Total RNA was eluted in DEPC treated water and stored at −80° C. Total RNA extraction from urine was performed using the MirVana miRNA Isolation Kit (Ambion, Austin, USA). These total RNA were converted to cDNA using the SuperScript III First-Strand Synthesis System (Life technologies, Carlsbad, USA), which was then used as a template for Q-RT-PCR. Q-RT-PCR was performed using the Fast SYBR Green Master Mix (Thermo Fisher Scientific, Waltham, USA) on a 7900HT Fast Real-Time PCR System (Life technologies) in triplicate. Micro RNA (miRNA) extraction was performed using the MirVana miRNA Isolation Kit, and was reverse transcribed using TaqMan reverse transcription kit (Applied Biosystems, Foster City, USA) and miRNA-specific RT primers provided with TaqMan microRNA assays (Applied Biosystems). Q-RT-PCR for miRNAs was performed using the TaqMan Universal PCR Master Mix according to the manufacturer's protocol. SDS software (Applied Biosystems) was used to determine cycle threshold (Ct) values. Expression level was quantified relative to β-actin for mRNA and RNU6B for miRNA using the 2-ΔΔCt method (12).

In another data set the test system is DNMT 1 and 3A. In words: Western blotting of DNMTs. The class given is cell-based, human. The method, then:
as §1
In general terms: Immunoblotting shows a protein as a band on a membrane.

A further data set relates to COX2. The experiment in a line: COX2 expression by western blotting. The class given is cell-based, human. As to conditions: agent alone; bladder cancer cells. The method, then:
Whole cell lysates were extracted using RIPA buffer (Thermo Scientific) supplemented with 10 μL/mL Halt™ Protease Inhibitor Cocktail Kit (Life Technologies) and 30 μL/mL Halt™ Phosphatase Inhibitor Cocktail Kit (Life Technologies). […] Secondary horseradish peroxidase (HRP)-conjugated antibodies were obtained from Cell Signaling Technology, and chemiluminescent detection of HRP-labeled antibodies was performed using Amersham ECL Prime Western Blotting Detection Reagent (GE Healthcare, Piscataway, USA). As loading control, β-actin was used.

Data set [1] is described as follows: Body weight of treated mice. The class given is in vivo. As to conditions: mouse, in vivo. The method, then:
For celecoxib and/or VP treatment, celecoxib (5 mg/kg) was administered via intraperitoneal (i.p.) injection once a day (17), and VP (50 mg/kg) was administered via i.p. every other day (18). EP4 antagonist ONO-AE3-208 (10 mg/kg) was administered via i.p. once a day (19). Control was applied with same volume (100 μL per injection) of 10% dimethyl sulphoxide in […] (Sigma-Aldrich). For GEM and CDDP (GC) treatment (i.p.), CDDP (6 mg/kg) was only applied after the first GEM (60 mg/kg) treatment on day 2, followed by three consecutive treatments of GEM on day 5, 8 and 11 (17). The next cycle was started on day 18, and the treatment was continued until tumor reached 2 cm in diameter. For erlotinib treatment, the mice were treated once a day, 6 days per week, by oral gavage with erlotinib (100 mg/kg) or control (PBS containing 0.5% methyl cellulose (Sigma-Aldrich) and 0.1% TWEEN 80) (20). Tumor size was measured at least every three days. […] To establish xenograft model with acquired resistance to erlotinib, erlotinib sensitive 5637 cells were injected subcutaneously into the both flanks of 4-5 week-old NSG mice, and the tumors were consecutively passaged from NSG mice treated with erlotinib and celecoxib until the development of refractory tumors. […]

In another data set the test system is YAP1. In words: YAP1 expression by western blotting. The class given is cell-based, human. The method, then: as §1
Where [2] appears, read: agent alone, bladder cancer cells.
The mark [3] stands for this setting: PGE2 added to celecoxib-treated cells.

As for `CC(C(=O)Nc1cc(C#N)ccc1CCCC(=O)O)c1ccc(F)c2ccccc12` (centres unmarked) [EP4-specific antagonist, ONO-AE3-208], the SOX2 expression entry with SOX2 (setting [2]) is recorded as “dramatic reduction”. Further, the “sphere formation / sphere-forming ability” value in the data set on urothelial CSCs is on record as “dramatic reduction”.

Consider `CCCCC[C@H](O)/C=C/[C@H]1[C@H](O)CC(=O)[C@@H]1C/C=C\CCCC(=O)O` [PGE2, Prostaglandin E2], for which the SOX2 expression entry with SOX2 (setting [3]) was “restored”. In the data set on urothelial CSCs (setting [3]), the sphere-forming ability entry is given as “restored”. For the same molecule, the let-7 expression result in the data set with let-7 is on record as “reduced”. Besides, the “promoter methylation of the let-7 host gene” value in the data set on MIRLET7BHG promoter is recorded as “Promoter methylation of the let-7 host gene was observed”. Besides, the “expression of several miRNAs” value in the data set on panel of miRNAs is recorded as “reduced”. Further, the “DNMT 1 and 3A expression” value in the data set on DNMT 1 and 3A was “upregulated”.

Regarding `Nc1ncn([C@H]2C[C@H](O)[C@@H](CO)O2)c(=O)n1` [5-Aza-dC, 5-Aza-2′-deoxycytidine], in the data set with let-7, the let-7 expression result was “restoration”. For the same molecule, the “promoter methylation of the let-7 host gene” value in the data set on MIRLET7BHG promoter is given as “demethylated”.

As to `C=Cc1c(C)c2cc3nc(cc4[nH]c(cc5nc(cc1[nH]2)C(C)=C5CCC(=O)O)c(CCC(=O)OC)c4C)[C@@]1(C)C3=CC=C(C(=O)OC)[C@H]1C(=O)OC` [VP, 3-[(23S,24R)-14-ethenyl-5-(3-methoxy-3-oxopropyl)-22,23-bis(methoxycarbonyl)-4,10,15,24-tetramethyl-25,26,27,28-tetraazahexacyclo[16.6.1.1^3,6.1^8,11.1^13,16.0^19,24]octacosa-1,3,5,7,9,11(27),12,14,16,18(25),19,21-dodecaen-9-yl]propanoic acid], the SOX2 expression result with SOX2 (setting [2]) is “reduced”. In the data set with COX2, the COX2 expression result is listed as “induced”. Moreover, the “body weight loss of mice” value in [1] was “did not observe body weight loss”.

In the case of `N.N.[Cl][Pt][Cl]` [cisplatin, Cisplatin], the SOX2 expression result in the data set with SOX2 (setting [2]) is given as “overexpression”. Also, the COX2 expression entry with COX2 was “overexpression”. The YAP1 expression result in the data set on YAP1 (setting [2]) is on record as “overexpression”. Moreover, the “sphere formation / sphere-forming ability” value with urothelial CSCs was “increased”.

For `CC(C)(C)n1nc(-c2ccc(Cl)cc2)c2c(N)ncnc21` [Src inhibitor, PP2], the YAP1 expression entry in the data set with YAP1 (Src inhibitor added to COX2 inhibitor-treated cells) is recorded as “downregulated”.

Turning to `CCc1cccc2c3c([nH]c12)C(CC)(CC(=O)O)OCC3` (centres unmarked) [etodolac, Etodolac], the SOX2 expression entry in the data set with SOX2 (setting [2]) is listed as “dramatic reduction”. In addition, the “sphere formation / sphere-forming ability” value in the data set on urothelial CSCs is given as “dramatic reduction”.
